Reference: ChEMBL document CHEMBL4665838, “Identification of a novel orally bioavailable NLRP3 inflammasome inhibitor” (Bioorg Med Chem Lett, 2020)
Blank lines part the entries; values can stand above or below the molecule they belong to. Calls of active or inactive are those of the source. The rule behind the calls is not given here.

Assays:
[1] = molecular target: T1, NACHT, LRR and PYD domains-containing protein 3 (Homo sapiens, UniProt Q96P20); experiment: Inhibition of NLRP3 in human THP1 cells assessed as inhibition of IL-1beta production at 1 uM relative to control; assay type: cell-based; details: THP-1
T1 sequence (Q96P20 whole entry, the tested form may be a part): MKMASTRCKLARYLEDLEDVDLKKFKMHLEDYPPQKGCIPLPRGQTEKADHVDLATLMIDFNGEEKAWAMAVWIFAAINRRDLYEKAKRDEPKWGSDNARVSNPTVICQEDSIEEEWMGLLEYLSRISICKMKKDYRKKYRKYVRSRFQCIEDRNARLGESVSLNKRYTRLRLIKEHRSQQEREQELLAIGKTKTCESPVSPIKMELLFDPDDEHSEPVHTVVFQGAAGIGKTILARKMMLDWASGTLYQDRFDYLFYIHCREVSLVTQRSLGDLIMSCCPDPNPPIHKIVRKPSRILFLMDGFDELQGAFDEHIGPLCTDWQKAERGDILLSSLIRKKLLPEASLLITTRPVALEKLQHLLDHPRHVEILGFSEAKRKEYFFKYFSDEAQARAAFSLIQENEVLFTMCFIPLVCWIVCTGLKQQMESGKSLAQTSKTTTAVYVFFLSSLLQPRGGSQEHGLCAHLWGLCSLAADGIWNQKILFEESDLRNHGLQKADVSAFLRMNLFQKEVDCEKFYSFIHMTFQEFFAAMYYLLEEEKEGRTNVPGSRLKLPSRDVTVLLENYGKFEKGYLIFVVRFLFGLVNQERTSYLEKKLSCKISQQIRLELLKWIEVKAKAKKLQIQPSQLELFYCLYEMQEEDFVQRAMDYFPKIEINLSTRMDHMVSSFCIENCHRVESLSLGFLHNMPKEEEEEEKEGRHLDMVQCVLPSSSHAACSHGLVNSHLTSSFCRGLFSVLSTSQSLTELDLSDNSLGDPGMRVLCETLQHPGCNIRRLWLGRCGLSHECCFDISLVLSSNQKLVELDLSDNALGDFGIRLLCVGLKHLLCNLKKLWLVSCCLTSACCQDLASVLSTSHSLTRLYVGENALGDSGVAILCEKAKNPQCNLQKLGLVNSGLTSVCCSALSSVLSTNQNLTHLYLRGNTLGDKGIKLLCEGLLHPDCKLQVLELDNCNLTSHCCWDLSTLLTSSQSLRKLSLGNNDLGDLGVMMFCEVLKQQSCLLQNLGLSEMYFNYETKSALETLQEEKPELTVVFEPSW

[2] = molecular target: T1, NACHT, LRR and PYD domains-containing protein 3; experiment: Inhibition of NLRP3 in human THP1 cells assessed as inhibition of IL-1beta production; assay type: cell-based, THP-1
Cytochrome P450 2C8 = molecular target: T2, Cytochrome P450 2C8 (Homo sapiens, UniProt P10632); experiment: Inhibition of CYP2C8 (unknown origin); assay type: ADME
T2 sequence (P10632 whole entry): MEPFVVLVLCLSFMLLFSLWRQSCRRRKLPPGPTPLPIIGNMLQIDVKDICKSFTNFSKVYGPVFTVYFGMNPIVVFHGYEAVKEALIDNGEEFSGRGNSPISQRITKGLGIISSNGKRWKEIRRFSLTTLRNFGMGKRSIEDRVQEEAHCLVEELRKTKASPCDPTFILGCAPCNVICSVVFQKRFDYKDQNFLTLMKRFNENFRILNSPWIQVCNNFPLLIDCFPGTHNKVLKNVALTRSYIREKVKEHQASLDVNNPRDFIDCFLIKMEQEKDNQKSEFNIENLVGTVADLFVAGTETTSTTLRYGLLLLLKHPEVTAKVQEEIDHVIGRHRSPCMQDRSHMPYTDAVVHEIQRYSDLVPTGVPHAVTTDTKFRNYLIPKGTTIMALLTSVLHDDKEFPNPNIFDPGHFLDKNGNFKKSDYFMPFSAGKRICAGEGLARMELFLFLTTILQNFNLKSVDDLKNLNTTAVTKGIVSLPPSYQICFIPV

[3] = AUC (0 to t) in C57BL/6 mouse at 3 mg/kg, po; assay type: ADME, organism-based; design: dose 3 mg/kg; details: in vivo
[4] = AUC (0 to t) in C57BL/6 mouse at 1 mg/kg, iv; assay type: ADME, organism-based; design: dose 1 mg/kg; details: in vivo
[5] = Volume of distribution at steady state in C57BL/6 mouse at 1 mg/kg, iv; assay type: ADME, organism-based; details: in vivo, read-out: Vdss
[6] = Metabolic stability in human liver microsomes; assay type: ADME, Microsome
[7] = Aqueous solubility of the compound; assay type: physicochemical; details: buffer
[8] = Initial plasma concentration in C57BL/6 mouse at 1 mg/kg, iv; assay type: ADME, organism-based
Cytochrome P450 2C9 = Cytochrome P450 2C9 (Homo sapiens, UniProt P11712); experiment: Inhibition of CYP2C9 (unknown origin); assay type: ADME
Chain of Cytochrome P450 2C9 (P11712 whole entry): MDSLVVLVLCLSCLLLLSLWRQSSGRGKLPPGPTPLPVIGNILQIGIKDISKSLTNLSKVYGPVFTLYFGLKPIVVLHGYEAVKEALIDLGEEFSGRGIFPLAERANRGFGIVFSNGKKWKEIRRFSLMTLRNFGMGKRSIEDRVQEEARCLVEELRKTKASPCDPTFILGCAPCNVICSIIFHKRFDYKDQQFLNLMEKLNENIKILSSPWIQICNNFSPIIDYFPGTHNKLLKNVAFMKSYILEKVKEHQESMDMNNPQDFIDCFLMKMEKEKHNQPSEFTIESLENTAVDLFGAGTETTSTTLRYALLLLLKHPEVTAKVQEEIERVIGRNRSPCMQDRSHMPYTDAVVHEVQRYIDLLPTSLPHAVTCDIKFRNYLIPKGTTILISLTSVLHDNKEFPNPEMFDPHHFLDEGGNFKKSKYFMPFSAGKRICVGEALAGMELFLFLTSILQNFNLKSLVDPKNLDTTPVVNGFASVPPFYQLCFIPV

[9] = Tmax in C57BL/6 mouse at 3 mg/kg, po; assay type: ADME, organism-based; details: in vivo
[10] = Terminal half life in C57BL/6 mouse at 1 mg/kg, iv; assay type: ADME, organism-based; details: in vivo, read-out: beta t1/2 (converted)
[11] = MRT in C57BL/6 mouse at 1 mg/kg, iv; assay type: ADME, organism-based; details: in vivo
[12] = Terminal half life in C57BL/6 mouse at 3 mg/kg, po; assay type: ADME, organism-based; details: in vivo, read-out: beta t1/2 (converted)
[13] = Oral bioavailability in C57BL/6 mouse at 3 mg/kg; assay type: ADME, organism-based; details: in vivo
[14] = Metabolic stability in mouse liver microsomes; assay type: ADME, Microsome
[15] = Clearance in C57BL/6 mouse at 1 mg/kg, iv; assay type: ADME, organism-based; details: in vivo
[16] = Permeability in human Caco2 cells; assay type: ADME, cell-based; details: caco-2
[17] = MRT in C57BL/6 mouse at 3 mg/kg, po; assay type: ADME, organism-based; details: in vivo
[18] = molecular target: T3, Interferon-inducible protein AIM2 (Homo sapiens) (UniProt O14862); experiment: Inhibition of AIM2 inflammasome (unknown origin)
T3 sequence (whole entry): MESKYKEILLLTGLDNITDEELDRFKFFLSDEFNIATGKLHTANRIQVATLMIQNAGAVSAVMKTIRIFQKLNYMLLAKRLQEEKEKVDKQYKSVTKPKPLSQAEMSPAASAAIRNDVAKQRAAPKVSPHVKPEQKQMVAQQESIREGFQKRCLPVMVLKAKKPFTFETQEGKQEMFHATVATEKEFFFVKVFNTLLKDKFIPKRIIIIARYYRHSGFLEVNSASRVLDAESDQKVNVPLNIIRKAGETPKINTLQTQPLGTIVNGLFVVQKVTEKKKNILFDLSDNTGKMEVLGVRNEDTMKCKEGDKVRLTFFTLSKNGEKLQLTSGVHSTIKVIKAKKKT

[19] = Cmax in C57BL/6 mouse at 3 mg/kg, po; assay type: ADME, organism-based; design: route oral, dose 3 mg/kg; details: in vivo
[20] = Metabolic stability in dog liver microsomes; assay type: ADME, Canis lupus familiaris, Microsome
[21] = Metabolic stability in rat liver microsomes; assay type: ADME, Microsome

SMILES: Cc1cnc(/C=C/S(=O)(=O)NC(=O)Nc2c3c(cc4c2CCC4)CCC3)s1
IC50 [2]: 1060 nM

SMILES: O=C(Nc1c2c(cc3c1OCC3)OCC2)NS(=O)(=O)/C=C/c1nccs1
inhibition [1]: < 50%

SMILES: O=C(Nc1c2c(cc3c1CCC3)CCC2)NS(=O)(=O)/C=C/c1nc2ccccc2s1
inhibition [1]: < 50% | IC50 [2]: > 1000 nM

SMILES: CC(C)(O)c1coc(S(=O)(=O)NC(=O)Nc2c3c(cc4c2CCC4)CCC3)c1
AUC(0-t) [3]: 46900 ng·h/mL | AUC(0-t) [4]: 20700 ng·h/mL | Vd [5]: 0.15 L/kg | C0 [8]: 22200 ng/mL | Tmax [9]: 0.25 h | half-life [10]: 3.97 h | MRT [11]: 3.22 h | half-life [12]: 1.32 h | F [13]: 77% | clearance [15]: 0.8 mL/min/kg | MRT [17]: 3.07 h | Cmax [19]: 11700 ng/mL

SMILES: O=C(Nc1c2c(cc3c1CCC3)CCC2)NS(=O)(=O)/C=C/c1ccccn1
IC50 [2]: 1000 nM

The remaining lines, values ahead:

inhibition [1]: < 50% | IC50 [2]: > 1000 nM
SMILES: O=C(Nc1c(F)cccc1C(F)(F)F)NS(=O)(=O)/C=C/c1nccs1

inhibition [1]: < 50% | IC50 [2]: > 1000 nM
SMILES: O=C(Nc1ccccc1C(F)(F)F)NS(=O)(=O)/C=C/c1nccs1

inhibition [1]: < 50% | IC50 [2]: > 1000 nM
SMILES: CC(C)c1cccc(C(C)C)c1NC(=O)NS(=O)(=O)/C=C/c1nccs1

inhibition [1]: < 50% | IC50 [2]: > 1000 nM
SMILES: Cc1cc(C)c(C)c(NC(=O)NS(=O)(=O)/C=C/c2nccs2)c1C

inhibition (INH) (Cytochrome P450 2C8): Active | AUC(0-t) [3]: 48900 ng·h/mL | AUC(0-t) [4]: 16500 ng·h/mL | Vd [5]: 0.2 L/kg | Stabilty [6]: Stable | solubility [7]: Soluble | C0 [8]: 6270 ng/mL | inhibition (INH) (Cytochrome P450 2C9): Active | Tmax [9]: 0.25 h | half-life [10]: 2.35 h | MRT [11]: 3.23 h | half-life [12]: 2.86 h | F [13]: 99% | Stabilty [14]: Stable | clearance [15]: 1.01 mL/min/kg | permeability [16]: Permeable | MRT [17]: 4.9 h | inhibition [18]: inactive | Cmax [19]: 8490 ng/mL | Stabilty [20]: Stable | Stabilty [21]: Stable
SMILES: O=C(Nc1c2c(cc3c1CCC3)CCC2)NS(=O)(=O)/C=C/c1nccs1

inhibition [1]: < 50% | IC50 [2]: > 1000 nM
SMILES: COc1cccc(OC)c1NC(=O)NS(=O)(=O)/C=C/c1nccs1

inhibition [1]: < 50% | IC50 [2]: > 1000 nM
SMILES: O=C(Nc1cc(C(F)(F)F)ccc1C(F)(F)F)NS(=O)(=O)/C=C/c1nccs1
